Tests used:
[1] = biological target: T1, Tyrosine-protein phosphatase non-receptor type 1 (Homo sapiens) (UniProt P18031); assay: Inhibition of PTP1B (unknown origin) at 10 uM
T1 sequence (whole entry): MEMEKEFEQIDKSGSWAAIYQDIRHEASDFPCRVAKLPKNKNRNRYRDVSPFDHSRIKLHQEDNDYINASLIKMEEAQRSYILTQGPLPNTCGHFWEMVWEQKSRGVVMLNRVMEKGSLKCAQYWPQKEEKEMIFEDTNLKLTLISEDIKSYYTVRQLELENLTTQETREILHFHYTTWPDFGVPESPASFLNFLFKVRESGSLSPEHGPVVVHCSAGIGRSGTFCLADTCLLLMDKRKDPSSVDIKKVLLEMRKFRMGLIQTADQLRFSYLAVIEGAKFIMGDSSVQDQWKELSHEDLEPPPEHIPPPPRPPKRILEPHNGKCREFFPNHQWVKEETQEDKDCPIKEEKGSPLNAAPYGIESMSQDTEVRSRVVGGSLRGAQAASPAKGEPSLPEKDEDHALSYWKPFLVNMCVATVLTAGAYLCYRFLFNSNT

L6 (Rattus norvegicus) = assay: Glucose uptake in Rattus norvegicus (rat) L6 cells at 50 uM
Danio rerio [2] = species on record: Danio rerio; assay: Toxicity in Danio rerio (zebrafish) embryo assessed as mortality at 10 uM after 24 to 72 hr by light microscopic analysis relative to control; format: organism-based; conditions: in vivo
Danio rerio [3] = assay: Toxicity in Danio rerio (zebrafish) embryo assessed as oedema at 10 uM after 24 to 72 hr by light microscopic analysis relative to control; format: organism-based; conditions: in vivo
Danio rerio [4] = species on record: Danio rerio; assay: Toxicity in Danio rerio (zebrafish) embryo assessed as deformations at 10 uM after 24 to 72 hr by light microscopic analysis relative to control; format: organism-based; conditions: in vivo
Danio rerio [5] = species on record: Danio rerio; assay: Toxicity in Danio rerio (zebrafish) embryo assessed as developmental delays at 10 uM after 24 to 72 hr by light microscopic analysis relative to control; format: organism-based; conditions: in vivo

| inhibition [1] | glucose uptake (L6 (Rattus norvegicus)) | Compound | Activity (Danio rerio [2]) | Activity (Danio rerio [3]) | Activity (Danio rerio [4]) | Activity (Danio rerio [5]) |
| --- | --- | --- | --- | --- | --- | --- |
| 30.4% | 13.3% | N#CC(C#N)=Cc1ccc(OCCSc2nnc(-c3ccc(F)cc3)o2)cc1 |  |  |  |  |
| 44.5% | 18.8% | Cc1ccc(-c2nnc(SCCOc3ccc(C=C(C#N)C#N)cc3)o2)cc1 |  |  |  |  |
| 34.3% | 24.2% | N#CC(C#N)=Cc1ccc(OCCSc2nnc(-c3ccc(Cl)cc3)o2)cc1 |  |  |  |  |
| 39% | 13.5% | COc1cccc(-c2nnc(SCCOc3ccc(C=C(C#N)C#N)cc3)o2)c1 |  |  |  |  |
| 23.4% | 26.6% | N#CC(C#N)=Cc1ccc(OCCSc2nnc(-c3ccccc3Cl)o2)cc1 |  |  |  |  |

Continued, compound first:

| Compound | inhibition [1] | glucose uptake (L6 (Rattus norvegicus)) | Activity (Danio rerio [2]) | Activity (Danio rerio [3]) | Activity (Danio rerio [4]) | Activity (Danio rerio [5]) |
| --- | --- | --- | --- | --- | --- | --- |
| COc1ccccc1-c1nnc(SCCOc2ccc(C=C(C#N)C#N)cc2)o1 | 50% | 38.5% | Non-toxic | Non-toxic | Non-toxic | Non-toxic |
| N#CC(C#N)=Cc1ccc(OCCSc2nnc(-c3cccc([N+](=O)[O-])c3)o2)cc1 | 41.4% | 11.8% |  |  |  |  |
| N#CC(C#N)=Cc1ccc(OCCSc2nnc(-c3ccccc3)o2)cc1 | 54.6% | 25.3% | Non-toxic | Non-toxic | Non-toxic | Non-toxic |
